In assay [1] the test system is hGYS1 enzyme / glycogen synthesis in HeLa cells. Nature of the assay: GYS1 cell based assay (glycogen synthesis, Glucose-glo). On the set-up: species or system human. To be noted: Homo sapiens, HeLa, 24 h, 24 h incubation, 20 mM glucose, geometric mean of at least 2 runs. An excerpt:
The GYS1 cell based assay is a bioluminescent assay that quantifies the glucose resulting from glycogen digestion; the quantified glucose is an indirect measure of GYS1 glycogen synthesis. Newly synthesized glycogen is digested using Glucoamylase; the resulting glucose is quantified by using the Glucose-glo assay kit from Promega. Glucose-glo works by coupling glucose oxidation and NADH production with a bioluminescent system that is activated with NADH. Glucose is oxidized by Glucose dehydrogenase and the reaction reduces NAD+ to NADH; NADH activates Reductase which reduces a pro-luciferin Reductase Substrate to luciferin. Luciferin is detected in a luciferase reaction using Ultra-Glo rLuciferase and ATP, and the luminesce produced is proportional to the glucose in the sample. The luminescence is measured as a single point read in a plate reader.
Compounds that inhibit the hGYS1 enzyme and, subsequently, the glycogen synthesis in cells, were tested using assay ready plates (white, clear bottom 384 well plates) in a final DMSO reaction volume of 1% DMSO. Compounds in the assay ready plates were mixed with media with no additives, except for 20 mM glucose prior to cell addition. HeLa cells were starved in media with no additives, except for 1× Glutamax for 24 h. Starved HeLa cells were plated, in a 1:1 ratio to the media in the assay ready plate and incubated for 24 h at 37° C. and 5% C02. Cells were washed in 1×PBS buffer and lysed in lysis buffer containing 50% 1×PBS and 25% 0.3 N HCl of the final volume in the well or reaction volume; cells were incubated with lysis buffer for 10 minutes and quenched with the remaining 25% of the reaction volume that consisted of 450 mM Tris pH 8.0. Lysates were mixed in a 1:1 ratio with Glucoamylase in 100 mM Sodium Acetate buffer, pH 5.3; the mixture was incubated for 1 h at 37° C. The digested lysate was mixed in a 1:1 ratio with Glucose-glo detection mixture as per vendor recommendations (Luciferase detection buffer, Reductase, Reductase substrate, Glucose dehydrogenase, and NAD) in read-out plates (solid white 384-well plates) and incubated for 1 h at RT. The plates were read using a plate reader with luminescence capabilities. Each compound concentration Relative Luminescence Unit (RLU) was averaged and normalized to the average RLU of the positive and negative controls to obtain a percentage inhibition. The normalized data vs. concentration was plotted; to determine the half-maximal concentration (IC50), the Levenberg-Marquardt algorithm was used to fit a Hill equation to the dose response data.
The results are shown in Table 3 below, which reports the IC50 of each compound. Unless otherwise specified, IC50 values are reported as the geometric mean of at least 2 assay runs on separate days. As shown in the table below, the compounds of the present invention are potent inhibitors of human GYS1. Unless otherwise specified, IC50 values are reported as the geometric mean of at least two assay runs on separate days. Each run represents the average of a technical replicate, where each compound was assayed twice in the same plate. A superscript “#” symbol in Table 3 indicates results from a single assay run.

Assay [2] has as its target hGYS2 enzyme (recombinant hGYS2/GN1 protein) (Homo sapiens (Human), UniProt P54840). Nature of the assay: GYS2 coupled enzyme assay (PK/LDH). In kind it is biochemical. To be noted: geometric mean of at least 2 assay runs on separate days, read-out: Avg_IC50. The essentials: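 Continuous PK/LDH-coupled readout of NADH loss at 340 nm over 10 min, with 200 nM hGYS2/GN1 and 2 mM each of UDP-glucose, glucose-6-phosphate and PEP, in 50 mM Tris pH 7.5 with 0.2% glycogen and 2.5% DMSO. Slopes were normalized to controls and IC50s fit to a Hill curve from duplicates.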

Assay [3] deals with hGYS1 enzyme (recombinant hGYS1/GN1 protein) (Homo sapiens (Human), UniProt P13807). Nature of the assay: GYS1 coupled enzyme assay (PK/LDH). In kind it is biochemical. To be noted: hGYS1/GN1 50 nM, UDP-Glucose 0.8 mM, G6P 1 mM; geometric mean of at least 2 runs.
hGYS1 enzyme (recombinant hGYS1/GN1 protein), sequence (P13807 whole entry): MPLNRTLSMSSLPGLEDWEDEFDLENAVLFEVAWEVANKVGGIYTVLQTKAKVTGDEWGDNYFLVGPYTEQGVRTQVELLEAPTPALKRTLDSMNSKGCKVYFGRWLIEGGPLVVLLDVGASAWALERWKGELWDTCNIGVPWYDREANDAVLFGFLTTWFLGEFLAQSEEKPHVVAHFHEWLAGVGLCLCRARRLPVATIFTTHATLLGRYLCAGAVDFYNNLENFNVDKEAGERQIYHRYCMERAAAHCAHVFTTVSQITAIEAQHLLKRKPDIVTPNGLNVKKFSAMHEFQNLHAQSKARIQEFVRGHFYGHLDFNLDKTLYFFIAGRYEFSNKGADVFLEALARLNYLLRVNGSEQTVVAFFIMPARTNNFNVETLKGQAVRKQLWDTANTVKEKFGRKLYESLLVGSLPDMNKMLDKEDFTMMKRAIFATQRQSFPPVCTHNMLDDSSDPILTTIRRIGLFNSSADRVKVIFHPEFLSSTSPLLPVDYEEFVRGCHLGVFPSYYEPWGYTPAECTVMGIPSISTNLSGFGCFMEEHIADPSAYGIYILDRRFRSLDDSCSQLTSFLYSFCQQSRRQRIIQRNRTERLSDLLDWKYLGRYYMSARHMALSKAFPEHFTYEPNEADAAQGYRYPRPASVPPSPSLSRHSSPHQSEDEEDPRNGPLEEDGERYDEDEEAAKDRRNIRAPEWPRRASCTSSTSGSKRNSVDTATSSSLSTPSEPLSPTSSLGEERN
hGYS1 enzyme (recombinant hGYS1/GN1 protein), sequence (P46976 whole entry partner): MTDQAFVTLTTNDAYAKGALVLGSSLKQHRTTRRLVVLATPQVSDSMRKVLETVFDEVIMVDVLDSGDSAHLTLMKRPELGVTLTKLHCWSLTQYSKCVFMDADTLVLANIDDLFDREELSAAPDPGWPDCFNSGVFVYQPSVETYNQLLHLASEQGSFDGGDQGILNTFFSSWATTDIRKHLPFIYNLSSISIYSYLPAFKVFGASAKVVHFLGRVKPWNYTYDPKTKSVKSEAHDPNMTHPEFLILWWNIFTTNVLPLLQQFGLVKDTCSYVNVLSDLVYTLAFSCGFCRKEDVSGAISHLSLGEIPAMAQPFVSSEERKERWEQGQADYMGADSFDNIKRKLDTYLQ

IC50 data for 19 molecules are collected here from patent US11814367B2, “Inhibitors of glycogen synthase 1 (GYS1) and methods of use thereof” (Maze Therapeutics, Inc., priority 2021, dated 2023).

hGYS2 enzyme (recombinant hGYS2/GN1 protein), sequence (P54840 whole entry): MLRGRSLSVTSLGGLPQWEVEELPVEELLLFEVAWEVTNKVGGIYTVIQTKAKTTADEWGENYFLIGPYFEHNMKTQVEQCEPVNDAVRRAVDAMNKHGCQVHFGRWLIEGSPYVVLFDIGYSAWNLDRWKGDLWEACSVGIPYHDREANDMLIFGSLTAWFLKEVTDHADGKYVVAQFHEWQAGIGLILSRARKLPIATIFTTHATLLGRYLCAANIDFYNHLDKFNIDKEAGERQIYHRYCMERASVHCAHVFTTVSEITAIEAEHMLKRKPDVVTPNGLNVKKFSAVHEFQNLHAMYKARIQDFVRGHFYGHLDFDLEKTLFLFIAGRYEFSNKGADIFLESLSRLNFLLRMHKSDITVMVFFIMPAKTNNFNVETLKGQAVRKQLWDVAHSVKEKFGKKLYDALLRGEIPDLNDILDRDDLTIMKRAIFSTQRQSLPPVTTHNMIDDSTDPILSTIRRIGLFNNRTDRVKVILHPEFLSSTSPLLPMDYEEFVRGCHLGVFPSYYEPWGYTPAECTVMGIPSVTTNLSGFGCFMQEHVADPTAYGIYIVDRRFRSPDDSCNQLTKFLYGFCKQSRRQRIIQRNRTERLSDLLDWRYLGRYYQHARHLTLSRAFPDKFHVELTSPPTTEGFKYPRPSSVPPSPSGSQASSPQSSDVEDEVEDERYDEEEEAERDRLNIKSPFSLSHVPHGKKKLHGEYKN
hGYS2 enzyme (recombinant hGYS2/GN1 protein), sequence (P46976 whole entry partner): as the sequence (P46976 whole entry partner) above

Consider `COc1cccc(C(NC(=O)[C@@H]2C[C@@H](F)CN2C(C)=O)c2ccc(C(C)C)c(F)n2)c1` (single isomer, unassigned) [Compound 654, (2S,4R)-1-acetyl-4-fluoro-N-[(S) or (R)-[6-fluoro-5-(propan-2-yl)pyridin-2-yl](3-methoxyphenyl)methyl]pyrrolidine-2-carboxamide], for which the IC50 in assay [1] worked out at 3290 nM.

In assay [1], `CC(=O)N1C[C@H](F)C[C@H]1C(=O)NC(c1cccc(-c2cc(C)nn2C)c1)c1ccc(C(C)C)c(F)n1` (single isomer, unassigned) [Compound 697, (2S,4R)-1-acetyl-N-[(S) or (R)-[3-(1,3-dimethyl-1H-pyrazol-5-yl)phenyl][6-fluoro-5-(propan-2-yl)pyridin-2-yl]methyl]-4-fluoropyrrolidine-2-carboxamide] came in with an IC50 of 9200 nM. With `NC(=O)NCC(=O)N1C[C@H](F)C[C@H]1C(=O)N[C@@H](c1ccccc1)c1ccc(C2CC2)c(F)n1` [Compound 302, (2S,4R)-1-[2-(carbamoylamino)acetyl]-N-[(S)-(5-cyclopropyl-6-fluoropyridin-2-yl)(phenyl)methyl]-4-fluoropyrrolidine-2-carboxamide], the IC50 in assay [1] was 1230 nM. On the same count and under the same terms, as for `O=C(N[C@@H](c1ccccc1)c1ccc(C2CC2)c(F)n1)[C@@H]1C[C@@H](F)CN1C(=O)CNC(=O)N1CCC1` [Compound 305, (2S,4R)-1-{2-[(azetidine-1-carbonyl)amino]acetyl}-N-[(S)-(5-cyclopropyl-6-fluoropyridin-2-yl)(phenyl)methyl]-4-fluoropyrrolidine-2-carboxamide], the figure is 630 nM.

In assay [1], `CC(C)c1ccc([C@@H](NC(=O)[C@@H]2C[C@@H](F)CN2C(=O)CNC(=O)N(C)C)c2ccccc2)cc1F` [Compound 361, (2S,4R)-1-{2-[(dimethylcarbamoyl)amino]acetyl}-4-fluoro-N-[(S)-[3-fluoro-4-(propan-2-yl)phenyl](phenyl)methyl] pyrrolidine-2-carboxamide] yielded an IC50 of 210 nM. For the molecule `O=C(N[C@@H](c1ccccc1)c1ccc(C2CC2)c(F)c1)[C@@H]1C[C@@H](F)CN1C(=O)Cc1cccc2ncccc12` [Compound 443, (2S,4R)-N-[(S)-(4-cyclopropyl-3-fluorophenyl)(phenyl)methyl]-4-fluoro-1-[2-(quinolin-5-yl)acetyl]pyrrolidine-2-carboxamide], the values for the IC50 in assay [2] and in assay [3] were above 100000 nM and 28 nM, respectively. In the case of `Cc1n[nH]c(C)c1CC(=O)N1C[C@H](F)C[C@H]1C(=O)N[C@@H](c1ccccc1)c1ccc(C2CC2)c(F)c1` [Compound 444, (2S,4R)-N-[(S)-(4-cyclopropyl-3-fluorophenyl)(phenyl)methyl]-1-[2-(3,5-dimethyl-1H-pyrazol-4-yl)acetyl]-4-fluoropyrrolidine-2-carboxamide], the IC50 is above 100000 nM in assay [2] and 44 nM in assay [3]. Consider `CC(C)c1ccc([C@@H](NC(=O)[C@@H]2C[C@@H](F)CN2C(=O)Cc2cnn[nH]2)c2cccnc2N)cc1F` [Compound 613, (2S,4R)-1-(2-(1H-1,2,3-triazol-5-yl)acetyl)-N—((R)-(2-aminopyridin-3-yl)(3-fluoro-4-isopropylphenyl)methyl)-4-fluoropyrrolidine-2-carboxamide], for which the IC50 in assay [2] was above 100000 nM; in assay [3], 130 nM. The corresponding values for `COc1ccccc1[C@H](NC(=O)[C@@H]1CCCN1C(C)=O)c1ccc(C(C)C)cc1` [Compound 639, (2S)-1-acetyl-N-[(R)-(2-methoxyphenyl)[4-(propan-2-yl)phenyl]methyl] pyrrolidine-2-carboxamide] are above 100000 nM and 921 nM.

For `CC(=O)N1CCC[C@H]1C(=O)N[C@H](c1ccc(C(C)C)cc1)c1ccccc1C` [Compound 640, (2S)-1-acetyl-N-[(R)-(2-methylphenyl)[4-(propan-2-yl)phenyl]methyl] pyrrolidine-2-carboxamide], the values for the IC50 in assay [2] and in assay [3] were above 100000 nM and 1440 nM, respectively.

Turning to `CC(C)c1ccc([C@@H](NC(=O)[C@@H]2CCCN2C(=O)Cc2cnn[nH]2)c2cccc3[nH]c(=O)[nH]c23)cc1` [Compound 644, (2S)-N-[(R)-(2-oxo-2,3-dihydro-1H-1,3-benzodiazol-4-yl)[4-(propan-2-yl)phenyl]methyl]-1-[2-(1H-1,2,3-triazol-5-yl)acetyl]pyrrolidine-2-carboxamide], the results for the IC50 in assay [2] and in assay [3] were above 100000 nM and 273 nM, respectively.

With `CC(C)c1ccc([C@@H](NC(=O)[C@@H]2C[C@@H](F)CN2C(=O)Cc2cnn[nH]2)c2cccc(F)c2)cc1F` [Compound 645, (2S,4R)-4-fluoro-N-[(S)-[3-fluoro-4-(propan-2-yl)phenyl](3-fluoropheny)methyl]-1-[2-(1H-1,2,3-triazol-5-yl)acetyl]pyrrolidine-2-carboxamide], the values for the IC50 in assay [2] and in assay [3] were above 100000 nM and 100 nM, respectively. The corresponding values for `CC(C)c1ccc([C@@H](NC(=O)[C@@H]2C[C@@H](F)CN2C(=O)Cc2cnn[nH]2)c2ccc(F)cc2)cc1F` [Compound 646, (2S,4R)-4-fluoro-N-[(S)-[3-fluoro-4-(propan-2-yl)phenyl](4-fluorophenyl)methyl]-1-[2-(1H-1,2,3-triazol-5-yl)acetyl]pyrrolidine-2-carboxamide] are above 100000 nM and 48 nM. For `O=C(N[C@@H](c1ccccc1)c1ccc(C2CC2)c(Cl)c1)[C@@H]1C[C@@H](F)CN1C(=O)Cc1cnn[nH]1` [Compound 664, (2S,4R)-N-[(S)-(3-chloro-4-cyclopropylphenyl) (phenyl)methyl]-4-fluoro-1-[2-(1H-1,2,3-triazol-5-yl)acetyl]pyrrolidine-2-carboxamide] the same measures were above 100000 nM and 115 nM. Take `Cc1cc([C@@H](NC(=O)[C@@H]2C[C@@H](F)CN2C(=O)Cc2cnn[nH]2)c2ccccc2)ccc1C1CC1` [Compound 665, (2S,4R)-N-[(S)-(4-cyclopropyl-3-methylphenyl) (phenyl)methyl]-4-fluoro-1-[2-(1H-1,2,3-triazol-5-yl)acetyl]pyrrolidine-2-carboxamide]: the figures for the IC50 in assay [2] and in assay [3] were above 100000 nM and 99 nM, respectively. The corresponding values for `CC(C)c1ccc([C@H](NC(=O)[C@@H]2C[C@@H](F)CN2C(=O)Cc2cnn[nH]2)c2ccccc2)cc1Cl` [Compound 671, (2S,4R)-N-[(R)-[3-chloro-4-(propan-2-yl)phenyl](phenyl)methyl]-4-fluoro-1-[2-(1H-1,2,3-triazol-5-yl)acetyl]pyrrolidine-2-carboxamide] are above 100000 nM and 849 nM.

The molecule `O=C(N[C@H](c1ccccc1)c1ccc(C2CC2)c(F)n1)[C@@H]1C[C@@H](F)CN1C(=O)Cn1cnc2ccccc21` [Compound 716, (2S,4R)-1-[2-(1H-1,3-benzodiazol-1-yl)acetyl]-N-[(R)-(5-cyclopropyl-6-fluoropyridin-2-yl)(phenyl)methyl]-4-fluoropyrrolidine-2-carboxamide] had an IC50 in assay [1] of 22300 nM. Turning to `CC(=O)N[C@@H](CC(N)=O)C(=O)N1C[C@H](F)C[C@H]1C(=O)N[C@@H](c1ccccc1)c1ccc(C(C)C)c(F)c1` [Compound 765, (2S,4R)-1-[(2S)-3-carbamoyl-2-acetamidopropanoyl]-4-fluoro-N-[(S)-[3-fluoro-4-(propan-2-yl)phenyl](phenyl)methyl] pyrrolidine-2-carboxamide], the IC50 in assay [2] was above 100000 nM; in assay [3], 47 nM. For “(2S,4R)-N-[(S)-(4- cyclopropyl-3- fluorophenyl)(phenyl) methyl]-4-fluoro-1- [2-(1H-1,2,3-triazol-5- yl)acetyl]pyrrolidine- 2-carboxamide [Compound 439]” the same measures were above 100000 nM and 185 nM.
